# Laboratory results as given in patent EP4685143A1 (Vivozon,Inc., priority 2023, dated 2024).
# pIC50: −log10 of the molar value.
# Biological target: T1, human HDAC6 enzyme (Homo sapiens, UniProt Q9UBN7)
# T1 sequence (Q9UBN7 1-1215): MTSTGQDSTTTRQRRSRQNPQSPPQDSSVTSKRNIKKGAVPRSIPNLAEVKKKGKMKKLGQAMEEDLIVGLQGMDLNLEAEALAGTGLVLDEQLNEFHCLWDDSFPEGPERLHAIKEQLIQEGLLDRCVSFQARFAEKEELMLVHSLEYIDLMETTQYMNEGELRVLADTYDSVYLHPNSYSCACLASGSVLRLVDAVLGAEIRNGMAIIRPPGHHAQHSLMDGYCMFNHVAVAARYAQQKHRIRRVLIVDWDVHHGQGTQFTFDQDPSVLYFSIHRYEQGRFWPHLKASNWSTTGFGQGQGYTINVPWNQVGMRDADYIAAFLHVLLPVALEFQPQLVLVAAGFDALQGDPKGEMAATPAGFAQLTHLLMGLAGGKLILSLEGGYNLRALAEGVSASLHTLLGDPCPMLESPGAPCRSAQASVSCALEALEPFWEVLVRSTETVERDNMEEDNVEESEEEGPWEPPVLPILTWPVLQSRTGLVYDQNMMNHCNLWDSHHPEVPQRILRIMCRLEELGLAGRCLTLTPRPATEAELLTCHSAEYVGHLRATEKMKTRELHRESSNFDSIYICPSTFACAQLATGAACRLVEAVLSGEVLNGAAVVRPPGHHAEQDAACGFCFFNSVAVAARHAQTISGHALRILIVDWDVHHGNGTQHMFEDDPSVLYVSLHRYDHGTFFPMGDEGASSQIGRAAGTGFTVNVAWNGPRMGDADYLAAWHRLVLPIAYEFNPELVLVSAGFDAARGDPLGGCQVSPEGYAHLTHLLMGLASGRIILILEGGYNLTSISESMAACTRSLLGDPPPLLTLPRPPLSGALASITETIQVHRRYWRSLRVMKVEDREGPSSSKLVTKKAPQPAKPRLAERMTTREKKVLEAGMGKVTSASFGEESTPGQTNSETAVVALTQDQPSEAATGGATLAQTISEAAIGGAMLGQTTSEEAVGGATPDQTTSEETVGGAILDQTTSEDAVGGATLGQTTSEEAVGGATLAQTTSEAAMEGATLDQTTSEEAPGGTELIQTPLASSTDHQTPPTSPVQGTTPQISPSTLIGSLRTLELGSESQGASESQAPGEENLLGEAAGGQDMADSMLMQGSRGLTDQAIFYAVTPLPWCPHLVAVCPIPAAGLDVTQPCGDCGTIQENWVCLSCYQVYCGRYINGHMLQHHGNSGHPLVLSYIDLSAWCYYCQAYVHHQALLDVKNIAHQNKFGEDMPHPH
# Test: Fluorescence-based enzyme activity assay
# Assay type: biochemical
# Conditions: substrate with fluorescent peptide of p53 residues 379-382, 30°C for 1 hour
# Procedure: Experimental Example 1: Fluorescence-based enzyme activity assay
# In order to measure the inhibitory effect of the compounds on the activity of histone deacetylase 6 (HDAC6), an enzyme activity assay was performed to evaluate the enzyme activity by reacting the human HDAC6 enzyme with a substrate to which a fluorescent peptide of p53 residues 379-382 was attached. The test compounds were dissolved in 100% DMSO at a concentration of 10 mM to prepare a stock solution. A starting concentration of 30 µM was prepared from the stock solution, followed by 1/3 serial dilutions to prepare the test buffer solution. Trichostatin A (TSA)-which is the reference compound used to confirm the validity of the experiment-was serially diluted by 1/3 with the test buffer solution, starting from the highest concentration of 1 µM. To react the test compounds and TSA prepared in the test buffer with the HDAC6 enzyme, they were dispensed into a 96-well black plate and spin-down of the plate was performed. Then, the reaction was carried out at room temperature for 10 minutes. After 10 minutes, the substrate was dispensed, and the plate was sealed. The reaction was carried out at 30°C for 1 hour under light-blocking conditions. Fluorescence values were measured using a plate reader (wavelength: excitation/emission = 360/460 nm). The fluorescence measurements were normalized to the HDAC6 enzyme-treated group as 100% and the untreated group as 0%, respectively. […]
row,Compound,pIC50
1,"O=c1cc(-c2noc(C(F)(F)F)n2)ccn1CC#Cc1ccccc1 [Example 2, 1-(3-phenylprop-2-yn-1-yl)-4-(5-(trifluoromethyl)-1,2,4-oxadiazol-3-yl)pyridin-2(1H)-one]",6.00 to 6.30
2,"O=c1cc(-c2noc(C(F)(F)F)n2)ccn1CC#Cc1ccncc1 [Example 3, 1-(3-(pyridin-4-yl)prop-2-yn-1-yl)-4-(5-(trifluoromethyl)-1,2,4-oxadiazol-3-yl)pyridin-2(1H)-one]",6.30 to 7.00
3,"O=c1cc(-c2noc(C(F)(F)F)n2)ccn1CC#Cc1cccnc1 [Example 4, 1-(3-(pyridin-3-yl)prop-2-yn-1-yl)-4-(5-(trifluoromethyl)-1,2,4-oxadiazol-3-yl)pyridin-2(1H)-one]",6.30 to 7.00
4,"O=c1cc(-c2noc(C(F)(F)F)n2)ccn1CC#Cc1ccccn1 [Example 5, 1-(3-(pyridin-2-yl)prop-2-yn-1-yl)-4-(5-(trifluoromethyl)-1,2,4-oxadiazol-3-yl)pyridin-2(1H)-one]",6.30 to 7.00
5,"O=c1cc(-c2noc(C(F)(F)F)n2)ccn1CC#Cc1ccccc1F [Example 6, 1-(3-(2-fluorophenyl)prop-2-yn-1-yl)-4-(5-(trifluoromethyl)-1,2,4-oxadiazol-3-yl)pyridin-2(1H)-one]",6.00 to 6.30
6,"O=c1cc(-c2nnc(C(F)F)o2)ccn1CC#Cc1ccncc1 [Example 8, 4-(5-(difluoromethyl)-1,3,4-oxadiazol-2-yl)-1-(3-(pyridin-4-yl)prop-2-yn-1-yl)pyridin-2(1H)-one]",> 7.00
7,"O=c1cc(-c2nnc(C(F)F)o2)ccn1CC#Cc1cccnc1 [Example 9, 4-(5-(difluoromethyl)-1,3,4-oxadiazol-2-yl)-1-(3-(pyridin-3-yl)prop-2-yn-1-yl)pyridin-2(1H)-one]",> 7.00
8,"COc1cccc(C#CCn2ccc(-c3nnc(C(F)F)o3)cc2=O)c1 [Example 21, 4-(5-(difluoromethyl)-1,3,4-oxadiazol-2-yl)-1-(3-(3-methoxyphenyl)prop-2-yn-1-yl)pyridin-2(1H)-one]",> 7.00
9,"Cc1cncc(C#CCn2ccc(-c3nnc(C(F)F)o3)cc2=O)c1 [Example 29, 4-(5-(difluoromethyl)-1,3,4-oxadiazol-2-yl)-1-(3-(5-methylpyridin-3-yl)prop-2-yn-1-yl)pyridin-2(1H)-one]",> 7.00
10,"CS(=O)(=O)c1cccc(C#CCn2ccc(-c3nnc(C(F)F)o3)cc2=O)c1 [Example 32, 4-(5-(difluoromethyl)-1,3,4-oxadiazol-2-yl)-1-(3-(3-(methylsulfonyl)phenyl)prop-2-yn-1-yl)pyridin-2(1H)-one]",> 7.00
11,"O=c1cc(-c2nnc(C(F)F)o2)ccn1CC#Cc1cc(F)cc(Cl)c1 [Example 35, 1-(3-(3-chloro-5-fluorophenyl)prop-2-yn-1-yl)-4-(5-(difluoromethyl)-1,3,4-oxadiazol-2-yl)pyridin-2(1H)-one]",> 7.00
12,"O=c1cc(-c2nnc(C(F)F)o2)ccn1CC#Cc1ccc2scnc2c1 [Example 40, 1-(3-(benzo[d]thiazol-5-yl)prop-2-yn-1-yl)-4-(5-(difluoromethyl)-1,3,4-oxadiazol-2-yl)pyridin-2(1H)-one]",6.30 to 7.00
13,Cc1nc2ccc(C#CCOc3cc(-c4nnc(C(F)F)o4)ccn3)cc2s1 [Example 41],6.00 to 6.30
14,"Cc1ncc(C#CCn2ccc(-c3nnc(C(F)F)o3)cc2=O)[nH]1 [Example 42, 4-(5-(difluoromethyl)-1,3,4-oxadiazol-2-yl)-1-(3-(2-methyl-1H-imidazol-5-yl)prop-2-yn-1-yl)pyridin-2(1H)-one]",> 7.00
15,"O=c1cc(-c2nnc(C(F)F)o2)ccn1CC#Cc1ccsc1 [Example 43, 4-(5-(difluoromethyl)-1,3,4-oxadiazol-2-yl)-1-(3-(thiophen-3-yl)prop-2-yn-1-yl)pyridin-2(1H)-one]",> 7.00

# Other lines, results leading:
row,pIC50,Compound
1,> 7.00,"O=c1cc(-c2nnc(C(F)F)o2)ccn1CC#Cc1ccccc1 [Example 1, 4-(5-(difluoromethyl)-1,3,4-oxadiazol-2-yl)-1-(3-phenylprop-2-yn-1-yl)pyridin-2(1H)-one]"
2,> 7.00,"O=c1cc(-c2nnc(C(F)F)o2)ccn1CC#Cc1ccccn1 [Example 10, 4-(5-(difluoromethyl)-1,3,4-oxadiazol-2-yl)-1-(3-(pyridin-2-yl)prop-2-yn-1-yl)pyridin-2(1H)-one]"
3,> 7.00,"O=c1cc(-c2nnc(C(F)F)o2)ccn1CC#Cc1ccc(F)cc1 [Example 11, 4-(5-(difluoromethyl)-1,3,4-oxadiazol-2-yl)-1-(3-(4-fluorophenyl)prop-2-yn-1-yl)pyridin-2(1H)-one]"
4,> 7.00,"O=c1cc(-c2nnc(C(F)F)o2)ccn1CC#Cc1cccc(F)c1 [Example 12, 4-(5-(difluoromethyl)-1,3,4-oxadiazol-2-yl)-1-(3-(3-fluorophenyl)prop-2-yn-1-yl)pyridin-2(1H)-one]"
5,> 7.00,"O=c1cc(-c2nnc(C(F)F)o2)ccn1CC#Cc1ccccc1F [Example 13, 4-(5-(difluoromethyl)-1,3,4-oxadiazol-2-yl)-1-(3-(2-fluorophenyl)prop-2-yn-1-yl)pyridin-2(1H)-one]"
6,> 7.00,"O=c1cc(-c2nnc(C(F)F)o2)ccn1CC#Cc1ccc(Cl)cc1 [Example 14, 1-(3-(4-chlorophenyl)prop-2-yn-1-yl)-4-(5-(difluoromethyl)-1,3,4-oxadiazol-2-yl)pyridin-2(1H)-one]"
7,> 7.00,"O=c1cc(-c2nnc(C(F)F)o2)ccn1CC#Cc1ccccc1Cl [Example 16, 1-(3-(2-chlorophenyl)prop-2-yn-1-yl)-4-(5-(difluoromethyl)-1,3,4-oxadiazol-2-yl)pyridin-2(1H)-one]"
8,> 7.00,"O=c1cc(-c2nnc(C(F)F)o2)ccn1CC#Cc1cccc(Cl)n1 [Example 22, 1-(3-(6-chloropyridin-2-yl)prop-2-yn-1-yl)-4-(5-(difluoromethyl)-1,3,4-oxadiazol-2-yl)pyridin-2(1H)-one]"
9,> 7.00,"O=c1cc(-c2nnc(C(F)F)o2)ccn1CC#Cc1cccc(Cl)c1F [Example 33, 1-(3-(3-chloro-2-fluorophenyl)prop-2-yn-1-yl)-4-(5-(difluoromethyl)-1,3,4-oxadiazol-2-yl)pyridin-2(1H)-one]"
10,> 7.00,"O=c1cc(-c2nnc(C(F)F)o2)ccn1CC#Cc1ccc(F)c(Cl)c1 [Example 34, 1-(3-(3-chloro-4-fluorophenyl)prop-2-yn-1-yl)-4-(5-(difluoromethyl)-1,3,4-oxadiazol-2-yl)pyridin-2(1H)-one]"
